# Measured values: patent US5681738A, “Use of 10-oxo-trans-8-decenoic acid in mushroom cultivation” (The Penn State Research Foundation, priority 1992, dated 1997)
# How the values were obtained:
# [1] = system: Agaricus bisporus mycelia; assay: Laccase activity of mycelia grown in potato dextrose yeast broth at 25° C.; type: cell-based, Agaricus bisporus (hybrid off-white)
# Protocol: (§1) The commercial mushroom spawn (hybrid off-white), Agaricus bisporus (Lange) Imbach, was obtained from Alpha Spawn Co., Avondale, Pa., and inoculated onto potato dextrose yeast (PDY) agar (Difco) and incubated at 25° C. A pure culture was obtained from the grain spawn grown on petri dishes and re-inoculated into PDY agar and maintained at 25° C. before use.
# (§2) The mushroom culture was grown on PDY agar or in PDY broth, both containing 0.5% yeast extract. The broth was dispensed into flasks prior to autoclaving, 50 mL. per flask, while 5 mL of sterile ODA solutions were aseptically added into flasks before inoculation.
# (§3) To prepare ODA solutions, about 18.4 mg (0.1 mmole) of 10-oxo-trans-8-decenoic acid prepared as described above were dissolved in i mL ethanol and diluted with deionized water to 100 mL to give a molar concentration of 10^-3 M, and then diluted in order to add 1.0 mL of the solutions to each flask to give the required final concentrations.
# Sterile ODA solutions were aseptically added into the autoclaved agar medium to achieve the desired final ODA concentrations, and then the medium was dispensed into petri dishes, ca 30 ml per dish. The levels of ODA tested included 2×10^-4, 10^-4, 10^-5, 10^-6 and 10^-7 M for both PDY agar and broth. These flasks and dishes were inoculated with 1 mm mycelial plugs from 4-week old cultures and incubated statically at 25° C. for 5 weeks. Each week, ca 300 μL of broth was aseptically taken from the flasks for laccase assay, while the colony diameter of every petri dish was measured using a vernier caliper to calculate the linear growth of the culture.
# The activity of laccase was assayed as described in Leonowicz et al., (1981). The reaction mixture consisted of 1.0 ml of 0.04M MES (2-[N-morpholino] ethanesulfonic acid, Sigma)-NaOH buffer, pH 5.3, 200 μL of 0.5 mM syringaldazine ([…], Sigma) in EtOH, and 100 μL of culture broth withdrawn from the flasks making up a final volume of 1.3 mL. The control mixture contained no culture broth. The change in absorbance was monitored for 5 mins at 525 nm. Laccase activity was expressed in units of kat, the conversion of 1 mole of syringaldazine per sec.
# (§4) Methods for the estimation of total fungal growth include the measurement of dry matter, linear growth, carbon dioxide evolution, chitin, ATP as well as extracellular laccase activity (Cochrane, (1958); Wood, (1979)). In this research the linear growth rate was used to examine the growth of mushroom mycelia on agar plates, while the extracellular laccase activity and dry matter were determined to estimate the growth of mycelia in liquid cultures. Extracellular laccases (p-diphenol: oxygen oxidoreductase, EC 1.10.3.2) produced by various classes of fungi are reported to be involved in biotransformation of lignin and lignosulfonate (Anders et al., (1976)), as well as in the breakdown of cellulose by cellulase (Westermark et al., (1974a); Westermark et al., (1974b); Haars et al., (1980)). Although the role of laccase in growth and development of Agaricus bisporus is not well defined, it has been observed that laccase production correlated with mycelial biomass of this fungus (Wood, (1979); Matcham et al., (1985); Claydon et al., (1988)).
# [2] = system: Agaricus bisporus mycelia; assay: Linear growth rate of mycelia on potato dextrose yeast (PDY) agar at 25° C.; type: cell-based, Agaricus bisporus (hybrid off-white); details: for linear growth rate of mycelia (in words): PDY agar; for Linear growth rate: control 5.66
# Protocol: as §1, §2, §3
# Sterile ODA solutions were aseptically added into the autoclaved agar medium to achieve the desired final ODA concentrations, and then the medium was dispensed into petri dishes, ca 30 ml per dish. The levels of ODA tested included 2×10^-4, 10^-4, 10^-5, 10^-6 and 10^-7 M for both PDY agar and broth. […]
# as §4
smiles,measurement,setting,value
"O=C/C=C/CCCCCCC(=O)O [ODA, 10-oxo-trans-8-decenoic acid]",mycelial growth by laccase activity and dry matter (in words),"[1]; 10^-6 and 10^-5 M (0.184 and 1.84 ppm), liquid culture",stimulated
same,LOG [Laccase activity (mkat/ml)],"[1]; ODA 2 × 10^-4 M (36.8 ppm), Week 1, control 0.49",0.25 LOG (mkat/ml)
same,LOG [Laccase activity (mkat/ml)],"[1]; ODA 2 × 10^-4 M (36.8 ppm), Week 2, control 1.19",1.84 LOG (mkat/ml)
same,LOG [Laccase activity (mkat/ml)],"[1]; ODA 2 × 10^-4 M (36.8 ppm), Week 3, control 1.97",2.07 LOG (mkat/ml)
same,LOG [Laccase activity (mkat/ml)],"[1]; ODA 2 × 10^-4 M (36.8 ppm), Week 4, control 2.37",2.15 LOG (mkat/ml)
same,LOG [Laccase activity (mkat/ml)],"[1]; ODA 2 × 10^-4 M (36.8 ppm), Week 5, control 2.74",2.38 LOG (mkat/ml)
same,LOG [Laccase activity (mkat/ml)],"[1]; ODA 10^-4 M (18.4 ppm), Week 1, control 0.49",1.04 LOG (mkat/ml)
same,LOG [Laccase activity (mkat/ml)],"[1]; ODA 10^-4 M (18.4 ppm), Week 2, control 1.19",2.13 LOG (mkat/ml)
same,LOG [Laccase activity (mkat/ml)],"[1]; ODA 10^-4 M (18.4 ppm), Week 3, control 1.97",2.29 LOG (mkat/ml)
same,LOG [Laccase activity (mkat/ml)],"[1]; ODA 10^-4 M (18.4 ppm), Week 4, control 2.37",2.38 LOG (mkat/ml)
same,LOG [Laccase activity (mkat/ml)],"[1]; ODA 10^-4 M (18.4 ppm), Week 5, control 2.74",2.64 LOG (mkat/ml)
same,LOG [Laccase activity (mkat/ml)],"[1]; ODA 10^-5 M (1.84 ppm), Week 1, control 0.49",1.63 LOG (mkat/ml)
same,LOG [Laccase activity (mkat/ml)],"[1]; ODA 10^-5 M (1.84 ppm), Week 2, control 1.19",2.62 LOG (mkat/ml)
same,LOG [Laccase activity (mkat/ml)],"[1]; ODA 10^-5 M (1.84 ppm), Week 3, control 1.97",2.90 LOG (mkat/ml)
same,LOG [Laccase activity (mkat/ml)],"[1]; ODA 10^-5 M (1.84 ppm), Week 4, control 2.37",3.20 LOG (mkat/ml)
same,LOG [Laccase activity (mkat/ml)],"[1]; ODA 10^-5 M (1.84 ppm), Week 5, control 2.74",3.53 LOG (mkat/ml)
same,LOG [Laccase activity (mkat/ml)],"[1]; ODA 10^-6 M (0.184 ppm), Week 1, control 0.49",1.16 LOG (mkat/ml)
same,LOG [Laccase activity (mkat/ml)],"[1]; ODA 10^-6 M (0.184 ppm), Week 2, control 1.19",2.34 LOG (mkat/ml)
same,LOG [Laccase activity (mkat/ml)],"[1]; ODA 10^-6 M (0.184 ppm), Week 3, control 1.97",2.76 LOG (mkat/ml)
same,LOG [Laccase activity (mkat/ml)],"[1]; ODA 10^-6 M (0.184 ppm), Week 4, control 2.37",3.07 LOG (mkat/ml)
same,LOG [Laccase activity (mkat/ml)],"[1]; ODA 10^-6 M (0.184 ppm), Week 5, control 2.74",3.43 LOG (mkat/ml)
same,LOG [Laccase activity (mkat/ml)],"[1]; ODA 10^-7 M (0.0184 ppm), Week 1, control 0.49",0.73 LOG (mkat/ml)
same,LOG [Laccase activity (mkat/ml)],"[1]; ODA 10^-7 M (0.0184 ppm), Week 2, control 1.19",2.15 LOG (mkat/ml)
same,LOG [Laccase activity (mkat/ml)],"[1]; ODA 10^-7 M (0.0184 ppm), Week 3, control 1.97",2.57 LOG (mkat/ml)
same,LOG [Laccase activity (mkat/ml)],"[1]; ODA 10^-7 M (0.0184 ppm), Week 4, control 2.37",2.86 LOG (mkat/ml)
same,LOG [Laccase activity (mkat/ml)],"[1]; ODA 10^-7 M (0.0184 ppm), Week 5, control 2.74",3.08 LOG (mkat/ml)
same,linear growth rate of mycelia (in words),[2]; 2×10^-4 and 10^-4 M (36.8 and 18.4 ppm),greatly increased
same,linear growth rate of mycelia (in words),[2]; 10^-5 M (1.84 ppm),slightly increased
same,activity at 200 µM,"[2]; Agaricus bisporus, ODA 2 × 10^-4 M (36.8 ppm), control 1.00 d, significance letter a, read-out: Relative linear growth rate",188%
same,activity at 100 µM,"[2]; Agaricus bisporus, ODA 10^-4 M (18.4 ppm), control 1.00 d, significance letter b, read-out: Relative linear growth rate",150%
same,activity at 10 µM,"[2]; Agaricus bisporus, ODA 10^-5 M (1.84 ppm), control 1.00 d, significance letter c, read-out: Relative linear growth rate",114%
same,activity at 1 µM,"[2]; Agaricus bisporus, ODA 10^-6 M (0.184 ppm), control 1.00 d, significance letters cd, read-out: Relative linear growth rate",110%
same,activity at 0.1 µM,"[2]; Agaricus bisporus, ODA 10^-7 M (0.0184 ppm), control 1.00 d, significance letters cd, read-out: Relative linear growth rate",105%
same,Linear growth rate,[2]; ODA 2 × 10^-4 M (36.8 ppm) in PDY agar,9.85 mm/wk
same,Linear growth rate,[2]; ODA 10^-4 M (18.4 ppm) in PDY agar,8.42 mm/wk
same,Linear growth rate,[2]; ODA 10^-5 M (1.84 ppm) in PDY agar,6.40 mm/wk
same,Linear growth rate,[2]; ODA 10^-6 M (0.184 ppm) in PDY agar,6.17 mm/wk
same,Linear growth rate,[2]; ODA 10^-7 M (0.0184 ppm) in PDY agar,5.90 mm/wk
same,effect on mushroom mycelial growth (in words),"[2]; PDY agar and broth, linear growth, dry matter and laccase activity",significant stimulatory effect
